Test results published in patent publication US10189836B2, “Therapeutic compounds, compositions and methods of use thereof” (Genentech, Inc., priority 2015, dated 2019).
pKi: −log10 of the molar value.

Assays:
[1] = target: isolated recombinant JAK1 kinase domain (Homo sapiens (Human), UniProt P23458); experiment: JAK1 enzyme assay (Caliper LabChip, Ki); format: biochemical; details: isolated recombinant JAK1 kinase domain, 1.5 nM enzyme, ATP 25 μM
[2] = target: isolated recombinant JAK2 kinase domain (Homo sapiens (Human), UniProt O60674); experiment: JAK2 enzyme assay (Caliper LabChip, Ki); format: biochemical; details: isolated recombinant JAK2 kinase domain, 0.2 nM enzyme, ATP 25 μM
Sequence of isolated recombinant JAK2 kinase domain (O60674 849-1124): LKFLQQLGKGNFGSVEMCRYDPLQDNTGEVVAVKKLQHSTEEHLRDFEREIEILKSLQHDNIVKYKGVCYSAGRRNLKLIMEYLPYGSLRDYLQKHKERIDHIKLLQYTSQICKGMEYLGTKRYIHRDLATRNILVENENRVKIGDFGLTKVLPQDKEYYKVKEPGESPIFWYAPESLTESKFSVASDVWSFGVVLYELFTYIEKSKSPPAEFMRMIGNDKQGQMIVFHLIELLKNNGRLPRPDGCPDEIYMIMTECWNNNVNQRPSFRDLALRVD

Sequence of isolated recombinant JAK1 kinase domain (P23458 875-1153): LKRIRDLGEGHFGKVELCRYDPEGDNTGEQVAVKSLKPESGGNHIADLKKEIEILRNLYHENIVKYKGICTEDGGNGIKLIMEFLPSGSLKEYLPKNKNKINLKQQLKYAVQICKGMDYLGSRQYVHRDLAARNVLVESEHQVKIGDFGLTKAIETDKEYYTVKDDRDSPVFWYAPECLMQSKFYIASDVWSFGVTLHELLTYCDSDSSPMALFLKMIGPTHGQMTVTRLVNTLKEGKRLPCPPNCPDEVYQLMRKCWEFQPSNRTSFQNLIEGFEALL

| SMILES | pKi [1] | pKi [2] |
| --- | --- | --- |
| CC(CC(=O)N1C2CCC1CN(c1cccn3nc(Nc4cnn(CC(=O)N5CCN(C)CC5)c4)nc13)C2)C(F)(F)F (centres unmarked) [Example 67, 4,4,4-trifluoro-3-methyl-1-[3-[2-[[1-[2-(4-methylpiperazin-1-yl)-2-oxo-ethyl]pyrazol-4-yl]amino]-[1,2,4]triazolo[1,5-a]pyridin-8-yl]-3,8-diazabicyclo[3.2.1]octan-8-yl]butan-1-one] | 9.10 | 8.85 |
| CN1CCN(C(=O)Cn2cc(Nc3nc4c(N5CC6CCC(C5)N6Cc5ccccc5F)cccn4n3)cn2)CC1 [Example 137, 2-(4-((8-((1R,5 S)-8-(2-fluorobenzyl)-3,8-diazabicyclo[3.2.1]octan-3-yl)-[1,2,4]triazolo[1,5-a]pyridin-2-yl)amino)-1H-pyrazol-1l-yl)-1-(4-methylpiperazin-1-yl)ethan-1-one] | 9.00 | 9.15 |
| O=C(Cn1cc(Nc2nc3c(N4CC5CCC(C4)N5C(=O)CCC(F)(F)F)cccn3n2)cn1)N1CCN(C2CCC2)CC1 [Example 152, 1-[3-[2-[[1-[2-(4-cyclobutylpiperazin-1-yl)-2-oxo-ethyl]pyrazol-4-yl]amino]-[1,2,4]triazolo[1,5-a]pyridin-8-yl]-3,8-diazabicyclo[3.2.1]octan-8-yl]-4,4,4-trifluoro-butan-1-one] | 9.22 | 8.77 |
| CN(CC1(C#N)CC1)C1CCN(C(=O)Cn2cc(Nc3nc4c(N5CC6CCC(C5)N6C(=O)C5CC(C(F)(F)F)C5)cccn4n3)cn2)CC1 (centres unmarked) [Example 192, 1-[[methyl-[1-[2-[4-[[8-[8-[3-(trifluoromethyl)cyclo-butanecarbonyl]-3,8-diazabicyclo[3.2.1]octan-3-yl]-[1,2,4]triazolo[1,5-a]alpyridin-2-yl]amino]pyrazol-1-yl]acetyl]-4-piperidyl]amino]methyl]-cyclopropanecarbonitrile] | 9.05 | 8.96 |
| CN1CCN(C(=O)Cn2cc(Nc3nc4c(N5CC6CCC(C5)N6S(=O)(=O)Cc5ccccc5Cl)cccn4n3)cn2)CC1 [Example 161, 2-[4-[[8-[8-[(2-chlorophenyl)methylsulfonyl]-3,8-diazabicyclo[3.2.1]octan-3-yl]-[1,2,4]triazolo[1,5-a]pyridin-2-yl]amino]pyrazol-1-yl]-1-(4-methylpiperazin-1-yl)ethanone] | 9.22 | 9.15 |
| CCc1cnn([C@@]2(CC#N)[C@@H]3CC[C@H]2CN(c2cccn4nc(Nc5cnn(CC(=O)N6CCN(C)CC6)c5)nc24)C3)c1 [Example 117, 2-[(1R,5S)-8-(4-ethylpyrazol-1-yl)-3-[2-[[1-[2-(4-methylpiperazin-1-yl)-2-oxo-ethyl]pyrazol-4-yl]amino]-[1,2,4]triazolo[1,5-a]pyridin-8-yl]-3-azabicyclo[3.2.1]octan-8-yl]acetonitrile] | 7.74 | 7.62 |
| CN1CCN(C(=O)Cn2cc(Nc3nc4c(N5CC6CCC(C5)N6C(=O)c5cncs5)cccn4n3)cn2)CC1 [Example 78, 1-(4-methylpiperazin-1-yl)-2-[4-[[8-[8-(thiazole-5-carbonyl)-3,8-diazabicyclo[3.2.1]octan-3-yl]-[1,2,4]triazolo[1,5-a]pyridin-2-yl]amino]pyrazol-1-yl]ethanone] | 9.10 | 8.89 |
| CN1CCN(C(=O)Cn2cc(Nc3nc4c(N5CC6CCC(C5)N6C(=O)C5C6CC(F)(F)CC65)cccn4n3)cn2)CC1 (centres unmarked) [Example 49, 2-[4-[[8-[8-(3,3-difluorobicyclo[3.1.0]hexane-6-carbonyl)-3,8-diazabicyclo[3.2.1]octan-3-yl]-[1,2,4]triazolo[1,5-a]pyridin-2-yl]amino]pyrazol-1-yl]-1-(4-methylpiperazin-1-yl)ethanone] | 8.82 | 8.39 |
| CSc1ccccc1S(=O)(=O)N1C2CCC1CN(c1cccn3nc(Nc4cnn(CC(=O)N5CCN(C)CC5)c4)nc13)C2 [Example 132, 1-(4-methylpiperazin-1-yl)-2-[4-[[8-[8-(2-methylsulfanylphenyl)sulfonyl-3,8-diazabicyclo[3.2.1]octan-3-yl]-[1,2,4]triazolo[1,5-a]pyridin-2-yl]amino]pyrazol-1-yl]ethanone] | 9.40 | 9.40 |
| CN1CCN(C(=O)Cn2cc(Nc3nc4c(N5CC6CCC(C5)N6CC5(CS(C)(=O)=O)CC5)cccn4n3)cn2)CC1 [Example 109, 1-(4-methylpiperazin-1-yl)-2-[4-[[8-[8-([1-(methylsulfonylmethyl)cyclopropyl]methyl]-3,8-diazabicyclo[3.2.1]octan-3-yl]-[1,2,4]triazolo[1,5-a]pyridin-2-yl]amino]pyrazol-1-yl]ethanone] | 8.32 | 8.15 |
| CN1CCN(C(=O)Cn2cc(Nc3nc4c(N5CC6CCC(C5)N6C(=O)C5(C(F)(F)F)CC5)cccn4n3)cn2)CC1 [Example 38, 1-(4-methylpiperazin-1-yl)-2-[4-[[8-[8-[1-(trifluoromethyl)cyclopropanecarbonyl]-3,8-diazabicyclo[3.2.1]octan-3-yl]-[1,2,4]triazolo[1,5-a]pyridin-2-yl]amino]pyrazol-1-yl]ethanone] | 8.89 | 8.74 |
| CN1CCN(C(=O)Cn2cc(Nc3nc4c(N5CC6CCC(C5)N6S(=O)(=O)CCC(F)(F)F)cccn4n3)cn2)CC1 [Example 60, 1-(4-methylpiperazin-1-yl)-2-[4-[[8-[8-(3,3,3-trifluoropropylsulfonyl)-3,8-diazabicyclo[3.2.1]octan-3-yl]-[1,2,4]triazolo[1,5-a]pyridin-2-yl]amino]pyrazol-1-yl]ethanone] | 9.15 | 8.82 |
| CN1CCN(C(=O)Cn2cc(Nc3nc4c(N5CC6CCC(C5)N6S(=O)(=O)CCCC(F)(F)F)cccn4n3)cn2)CC1 [Example 174, 1-(4-methylpiperazin-1-yl)-2-[4-[[8-[8-(4,4,4-trifluorobutylsulfonyl)-3,8-diazabicyclo[3.2.1]octan-3-yl]-[1,2,4]triazolo[1,5-a]pyridin-2-yl]amino]pyrazol-1-yl]ethanone] | 9.15 | 8.96 |
